Measured values taken from PubChem BioAssay (NCI).
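Interpolation was linear, between the two tested concentrations surrounding the appropriate level; five concentrations were tested over 48 hours in 96-well plates. Abbreviation: GI50, concentration required for 50% inhibition of growth. At the TGI there is no net growth.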

Experiments:
Assay in all cases: DTP human tumour cell line panel, 48 h
DU-145 prostate = test system: DU-145 prostate
HCC-2998 colon = test system: HCC-2998 colon
OVCAR-3 ovarian = test system: OVCAR-3 ovarian
NCI/ADR-RES ovarian = test system: NCI/ADR-RES ovarian
MOLT-4 leukemia = test system: MOLT-4 leukemia
SNB-19 CNS = test system: SNB-19 CNS
COLO 205 colon = test system: COLO 205 colon
UACC-257 melanoma = test system: UACC-257 melanoma
HL-60(TB) leukemia = test system: HL-60(TB) leukemia
A498 renal = test system: A498 renal
CCRF-CEM leukemia = test system: CCRF-CEM leukemia
786-0 renal = test system: 786-0 renal
SN12C renal = test system: SN12C renal
SNB-75 CNS = test system: SNB-75 CNS
ACHN renal = test system: ACHN renal
HCT-116 colon = test system: HCT-116 colon
CAKI-1 renal = test system: CAKI-1 renal
HOP-62 NSCLC = test system: HOP-62 NSCLC
U251 CNS = test system: U251 CNS
SF-268 CNS = test system: SF-268 CNS
HS 578T breast = test system: HS 578T breast
SF-539 CNS = test system: SF-539 CNS
EKVX NSCLC = test system: EKVX NSCLC
M14 melanoma = test system: M14 melanoma
BT-549 breast = test system: BT-549 breast
SK-MEL-28 melanoma = test system: SK-MEL-28 melanoma
SK-MEL-5 melanoma = test system: SK-MEL-5 melanoma
MDA-MB-435 = test system: MDA-MB-435
NCI-H460 lung = test system: NCI-H460 lung

`Cc1cc(S(=O)(=O)/N=C(/N)Nc2ccccc2O)c(SCc2ccccc2)cc1Cl` was tested, and the GI50 (DU-145 prostate) was 23.9 µM, the TGI (DU-145 prostate) was 79.5 µM and the GI50 (HCC-2998 colon) was 14.5 µM. For the same compound, the TGI (HCC-2998 colon) was 29.7 µM, the GI50 (OVCAR-3 ovarian) was 14.5 µM and the TGI (OVCAR-3 ovarian) was 34.1 µM. It also gave a GI50 (NCI/ADR-RES ovarian) of 16.7 µM, a TGI (NCI/ADR-RES ovarian) of 36.6 µM and a GI50 (MOLT-4 leukemia) of 3.01 µM. It also gave a TGI (MOLT-4 leukemia) of 42.3 µM, a GI50 (SNB-19 CNS) of 16.6 µM and a TGI (SNB-19 CNS) of 34 µM. The GI50 (COLO 205 colon) was 23 µM, the TGI (COLO 205 colon) was 47.8 µM and the GI50 (UACC-257 melanoma) was 14.6 µM. It also gave a TGI (UACC-257 melanoma) of 30.4 µM, a GI50 (HL-60(TB) leukemia) of 4.22 µM and a TGI (HL-60(TB) leukemia) greater than 100 µM. For the same compound, the GI50 (A498 renal) was 21.2 µM, the TGI (A498 renal) was 39.1 µM and the GI50 (CCRF-CEM leukemia) was 5.95 µM. The TGI (CCRF-CEM leukemia) was 39.8 µM, the GI50 (786-0 renal) was 18.6 µM and the TGI (786-0 renal) was 35 µM. The GI50 (SN12C renal) was 14.3 µM, the TGI (SN12C renal) was 30.4 µM and the GI50 (SNB-75 CNS) was 19.3 µM. It also gave a TGI (SNB-75 CNS) of 39.2 µM, a GI50 (ACHN renal) of 13 µM and a TGI (ACHN renal) of 27.4 µM. For the same compound, the GI50 (HCT-116 colon) was 15.1 µM, the TGI (HCT-116 colon) was 31.4 µM and the GI50 (CAKI-1 renal) was 13.5 µM. The TGI (CAKI-1 renal) was 32.3 µM, the GI50 (HOP-62 NSCLC) was 20.7 µM and the TGI (HOP-62 NSCLC) was 37.3 µM. For the same compound, the GI50 (U251 CNS) was 14.9 µM, the TGI (U251 CNS) was 30.5 µM and the GI50 (SF-268 CNS) was 13.4 µM. It also gave a TGI (SF-268 CNS) of 45.4 µM, a GI50 (HS 578T breast) of 21.8 µM and a TGI (HS 578T breast) of 47.9 µM. It also gave a GI50 (SF-539 CNS) of 10.4 µM, a TGI (SF-539 CNS) of 24.7 µM and a GI50 (EKVX NSCLC) of 11 µM. It also gave a TGI (EKVX NSCLC) of 37.8 µM, a GI50 (M14 melanoma) of 15.3 µM and a TGI (M14 melanoma) of 32.3 µM. The GI50 (BT-549 breast) was 8.2 µM, the TGI (BT-549 breast) was 22.8 µM and the GI50 (SK-MEL-28 melanoma) was 18.6 µM. It also gave a TGI (SK-MEL-28 melanoma) of 43.9 µM, a GI50 (SK-MEL-5 melanoma) of 14.6 µM and a TGI (SK-MEL-5 melanoma) of 30.5 µM. The GI50 (MDA-MB-435) was 13.5 µM, the TGI (MDA-MB-435) was 32 µM and the GI50 (NCI-H460 lung) was 7.64 µM.
